Source: ChEMBL document CHEMBL4138105, “LL-37-derived short antimicrobial peptide KR-12-a5 and its d-amino acid substituted analogs with cell selectivity, anti-biofilm activity, synergistic effect with conventional antibiotics, and anti-inflammatory activity” (Eur J Med Chem, 2017)
In brackets after ≈: the same amount, converted by molar mass. Activity calls are given as the source filed them. The rule behind the calls is not given here.

Columns and labels:
Staphylococcus aureus [1] = test: Potency index, ratio of LL-37 MIC to compound MIC for methicillin resistant Staphylococcus aureus CCARM 3089; assay type: functional
[2] = Therapeutic index, ratio of MHC10 for human RBC to MIC for Escherichia coli KCTC 1682; assay type: toxicity; details: red blood cells (RBC), pooled result: one value given for 6 cell lines, strains, targets or settings, read-out: TI
Enterococcus faecium = test: Antibacterial activity against Vancomycin-resistant Enterococcus faecium ATCC 51559 after 24 hrs; assay type: functional; details: ATCC 51559, 24 h
Escherichia coli [3] = test: Antibacterial activity against Escherichia coli KCTC 1682 in presence of 2.5 mM CaCl2 after 24 hrs; assay type: functional; details: KCTC 1682, 24 h
Pseudomonas aeruginosa [4] = test: Synergistic antibacterial activity against multidrug-resistant Pseudomonas aeruginosa CCARM 2095 after 72 hrs in presence of oxacillin by chequerboard assay; assay type: functional
Staphylococcus aureus [5] = test: Antibacterial activity against Staphylococcus aureus KCTC 1621 in presence of 4.5 mM KCl after 24 hrs; assay type: functional; details: KCTC 1621, 24 h
Staphylococcus aureus [6] = test: Potency index, ratio of LL-37 MIC to compound MIC for methicillin resistant Staphylococcus aureus CCARM 3095; assay type: functional
RAW264.7 [7] = test: Anti-inflammatory activity in mouse RAW264.7 cells assessed as reduction in LPS-induced MCP-1 production at 10 to 20 uM preincubated for 1 hr followed by LPS stimulation measured after 6 hrs by ELISA; assay type: functional, cell-based
Pseudomonas aeruginosa [8] = test: Potency index, ratio of LL-37 MBIC90 to compound MBIC90 for antibiofilm activity against multidrug-resistant Pseudomonas aeruginosa CCARM 2095; assay type: functional
Staphylococcus aureus [9] = test: Antibacterial activity against Staphylococcus aureus KCTC 1621 assessed as cytoplasmic membrane depolarization at 2 times MIC by disC3-5 dye based fluorescence assay; assay type: functional, organism-based
Escherichia coli [10] = test: Antibacterial activity against Escherichia coli KCTC 1682 in presence of 4.5 mM KCl after 24 hrs; assay type: functional; details: KCTC 1682, 24 h
RAW264.7 [11] = test: Anti-inflammatory activity in mouse RAW264.7 cells assessed as reduction in LPS-induced nitric oxide production at 10 to 20 uM after 24 hrs by Griess assay; assay type: functional, cell-based
Pseudomonas aeruginosa [12] = test: Antibacterial activity against multidrug-resistant Pseudomonas aeruginosa CCARM 2095 after 24 hrs; assay type: functional; details: CCARM 2095, 24 h
NIH3T3 = test: Cytotoxicity against mouse NIH/3T3 cells up to 128 uM after 48 hrs by MTT assay; assay type: cell-based; details: nih3t3, 48 h
Staphylococcus aureus [13] = test: Antibacterial activity against Staphylococcus aureus KCTC 1621 in presence of 2.5 mM CaCl2 after 24 hrs; assay type: functional; details: KCTC 1621, 24 h
Staphylococcus aureus [14] = test: Antibacterial activity against Staphylococcus aureus KCTC 1621 in presence of 150 mM NaCl after 24 hrs; assay type: functional; details: KCTC 1621, 24 h
RAW264.7 [15] = test: Cytotoxicity against mouse RAW264.7 cells up to 128 uM after 48 hrs by MTT assay; assay type: cell-based; details: raw264.7, 48 h
Pseudomonas aeruginosa [16] = test: Synergistic antibacterial activity against multidrug-resistant Pseudomonas aeruginosa CCARM 2095 after 72 hrs in presence of chloramphenicol by chequerboard assay; assay type: functional
Escherichia coli [17] = test: Antibacterial activity against Escherichia coli KCTC 1682 after 24 hrs; assay type: functional; details: KCTC 1682, 24 h
Erythrocyte = test: Hemolytic activity in human RBC after 1 hr; assay type: ADME, cell-based
Staphylococcus aureus [18] = test: Potency index, ratio of melittin MIC to compound MIC for methicillin resistant Staphylococcus aureus CCARM 3089; assay type: functional
Pseudomonas aeruginosa [19] = test: Antibiofilm activity against multidrug-resistant Pseudomonas aeruginosa CCARM 2095 after 24 hrs by crystal violet staining based assay; assay type: functional
Escherichia coli [20] = test: Antibacterial activity against Escherichia coli KCTC 1682 in presence of 1 mM MgCl2 after 24 hrs; assay type: functional; details: KCTC 1682, 24 h
Pseudomonas aeruginosa [21] = test: Antibacterial activity against multidrug-resistant Pseudomonas aeruginosa CCARM 2109 after 24 hrs; assay type: functional; details: CCARM 2109, 24 h
Lipid bilayer = test: Binding affinity to EYPE/EYPG small unilamellar vesicles assessed as intrinsic tryptophan acrylamide quenching constant by fluorescence assay (reference value: 5.95 to 7.56 /M)
Pseudomonas aeruginosa [22] = test: Potency index, ratio of LL-37 MIC to compound MIC for multidrug-resistant Pseudomonas aeruginosa CCARM 2095; assay type: functional
RAW264.7 [23] = test: Anti-inflammatory activity in mouse RAW264.7 cells assessed as reduction in LPS-induced TNF-alpha mRNA expression at 10 uM after 3 hrs by RT-PCR analysis; assay type: functional, cell-based
Staphylococcus aureus [24] = test: Antibacterial activity against Staphylococcus aureus KCTC 1621 in presence of 6 uM NH4Cl after 24 hrs; assay type: functional; details: KCTC 1621, 24 h
Pseudomonas aeruginosa [25] = test: Potency index, ratio of LL-37 MIC to compound MIC for multidrug-resistant Pseudomonas aeruginosa CCARM 2109; assay type: functional
Bacillus subtilis = test: Antibacterial activity against Bacillus subtilis KCTC 3068 after 24 hrs; assay type: functional; details: KCTC 3068, 24 h
Staphylococcus aureus [26] = test: Potency index, ratio of melittin MIC to compound MIC for methicillin resistant Staphylococcus aureus CCARM 3090; assay type: functional
RAW264.7 [27] = test: Anti-inflammatory activity in mouse RAW264.7 cells assessed as reduction in LPS-induced MCP-1 mRNA expression at 10 uM after 3 hrs by RT-PCR analysis; assay type: functional, cell-based
Staphylococcus aureus [28] = test: Antibacterial activity against Staphylococcus aureus KCTC 1621 in presence of 1 mM MgCl2 after 24 hrs; assay type: functional; details: KCTC 1621, 24 h
RAW264.7 [29] = test: Anti-inflammatory activity in mouse RAW264.7 cells assessed as reduction in LPS-induced iNOS mRNA expression at 5 uM after 6 hrs by RT-PCR analysis; assay type: functional, cell-based
Pseudomonas aeruginosa [30] = test: Antibacterial activity against Pseudomonas aeruginosa KCTC 1637 after 24 hrs; assay type: functional; details: KCTC 1637, 24 h
Escherichia coli [31] = test: Antibacterial activity against Escherichia coli KCTC 1682 in presence of 20% human serum after 24 hrs; assay type: functional; details: KCTC 1682, 24 h
Pseudomonas aeruginosa [32] = test: Potency index, ratio of melittin MIC to compound MIC for multidrug-resistant Pseudomonas aeruginosa CCARM 2095; assay type: functional
RAW264.7 [33] = test: Anti-inflammatory activity in mouse RAW264.7 cells assessed as reduction in LPS-induced IL-6 mRNA expression at 10 uM after 3 hrs by RT-PCR analysis; assay type: functional, cell-based
Staphylococcus aureus [34] = test: Antibacterial activity against methicillin resistant Staphylococcus aureus CCARM 3090 after 24 hrs; assay type: functional; details: CCARM 3090, 24 h
[35] = tested on: Staphylococcus epidermidis; test: Antibacterial activity against Staphylococcus epidermidis KCTC 1917 after 24 hrs; assay type: functional; details: KCTC 1917, 24 h
Pseudomonas aeruginosa [36] = test: Potency index, ratio of melittin MIC to compound MIC for multidrug-resistant Pseudomonas aeruginosa CCARM 2109; assay type: functional
Escherichia coli [37] = test: Antibacterial activity against Escherichia coli KCTC 1682 in presence of 6 uM NH4Cl after 24 hrs; assay type: functional; details: KCTC 1682, 24 h
RAW264.7 [38] = test: Anti-inflammatory activity in mouse RAW264.7 cells assessed as reduction in LPS-induced TNF-alpha production at 10 to 20 uM preincubated for 1 hr followed by LPS stimulation measured after 6 hrs by ELISA; assay type: functional, cell-based
[39] = Binding affinity to EYPC/cholesterol small unilamellar vesicles assessed as intrinsic tryptophan acrylamide quenching constant by fluorescence assay (reference value: 5.95 to 7.56 /M)

What does the source list for `CC[C@H](C)[C@H](NC(=O)[C@H](CCCNC(=N)N)NC(=O)[C@@H](N)CCCCN)C(=O)N[C@H](C(=O)N[C@@H](CCCCN)C(=O)N[C@H](CC(C)C)C(=O)N[C@H](C(=O)N[C@@H](CC(C)C)C(=O)N[C@@H](CCCCN)C(=O)N[C@@H](Cc1c[nH]c2ccccc12)C(=O)N[C@@H](CC(C)C)C(=O)N[C@@H](CCCNC(=N)N)C(N)=O)[C@@H](C)CC)C(C)C`?
Ratio (Staphylococcus aureus [1]): 2 - 4; selectivity ratio [2]: 61.2; MIC (Enterococcus faecium): 4 µM (≈ 6.26 µg/mL); MIC (Escherichia coli [3]): 16 µM; fractional inhibitory concentration index (FICI) (Pseudomonas aeruginosa [4]): 0.5; MIC (Staphylococcus aureus [5]): 2 µM; Ratio (Staphylococcus aureus [6]): 2 - 4; Activity (RAW264.7 [7]): Active; fold change (FC) (Pseudomonas aeruginosa [8]): 4 - 8; Activity (Staphylococcus aureus [9]): Active; MIC (Escherichia coli [10]): 4 µM; Activity (RAW264.7 [11]): Active; MIC (Pseudomonas aeruginosa [12]): 8 µM (≈ 12.5 µg/mL); Activity (NIH3T3): Non-Toxic; MIC (Staphylococcus aureus [13]): 8 µM; MIC (Staphylococcus aureus [14]): 8 µM; Activity (RAW264.7 [15]): Non-Toxic; fractional inhibitory concentration index (FICI) (Pseudomonas aeruginosa [16]): 0.375; MIC (Escherichia coli [17]): 4 µM (≈ 6.26 µg/mL); MHC10 (Erythrocyte): 202 µM; Ratio (Staphylococcus aureus [18]): 2 - 4; MBIC90 (Pseudomonas aeruginosa [19]): 16 µM; MIC (Escherichia coli [20]): 4 µM; MIC (Pseudomonas aeruginosa [21]): 4 µM (≈ 6.26 µg/mL); KSV (Lipid bilayer): 0.97 M⁻¹; Ratio (Pseudomonas aeruginosa [22]): 2 - 4; Activity (RAW264.7 [23]): Active; MIC (Staphylococcus aureus [24]): 2 µM; Ratio (Pseudomonas aeruginosa [25]): 2 - 4; MIC (Bacillus subtilis): 4 µM (≈ 6.26 µg/mL); Ratio (Staphylococcus aureus [26]): 2 - 4; Activity (RAW264.7 [27]): Active; MIC (Staphylococcus aureus [28]): 4 µM; Activity (RAW264.7 [29]): Active; MIC (Pseudomonas aeruginosa [30]): 4 µM (≈ 6.26 µg/mL); MIC (Escherichia coli [31]): 8 µM; Ratio (Pseudomonas aeruginosa [32]): 2 - 4; Activity (RAW264.7 [33]): Active; MIC (Staphylococcus aureus [34]): 4 µM (≈ 6.26 µg/mL); MIC [35]: 4 µM (≈ 6.26 µg/mL); Ratio (Pseudomonas aeruginosa [36]): 2 - 4; MIC (Escherichia coli [37]): 4 µM; Activity (RAW264.7 [38]): Active; KSV [39]: 2.9 M⁻¹

Which results are given for `CC[C@H](C)[C@H](NC(=O)[C@H](CC(C)C)NC(=O)[C@H](CCCCN)NC(=O)[C@@H](NC(=O)[C@@H](NC(=O)[C@H](CCCNC(=N)N)NC(=O)[C@@H](N)CCCCN)[C@@H](C)CC)C(C)C)C(=O)N[C@@H](CC(C)C)C(=O)N[C@@H](CCCCN)C(=O)N[C@@H](Cc1c[nH]c2ccccc12)C(=O)N[C@@H](CC(C)C)C(=O)N[C@@H](CCCNC(=N)N)C(N)=O`?
Ratio (Staphylococcus aureus [1]): 2 - 4; selectivity ratio [2]: 4.4; MIC (Enterococcus faecium): 4 µM (≈ 6.26 µg/mL); MIC (Escherichia coli [3]): 8 µM; fractional inhibitory concentration index (FICI) (Pseudomonas aeruginosa [4]): 0.375; MIC (Staphylococcus aureus [5]): 2 µM; Ratio (Staphylococcus aureus [6]): 2 - 4; Activity (RAW264.7 [7]): Active; fold change (FC) (Pseudomonas aeruginosa [8]): 4 - 8; Activity (Staphylococcus aureus [9]): Active; MIC (Escherichia coli [10]): 8 µM; Activity (RAW264.7 [11]): Active; MIC (Pseudomonas aeruginosa [12]): 16 µM (≈ 25 µg/mL); Activity (NIH3T3): Non-Toxic; MIC (Staphylococcus aureus [13]): 2 µM; MIC (Staphylococcus aureus [14]): 2 µM; Activity (RAW264.7 [15]): Non-Toxic; fractional inhibitory concentration index (FICI) (Pseudomonas aeruginosa [16]): 0.25; MIC (Escherichia coli [17]): 8 µM (≈ 12.5 µg/mL); MHC10 (Erythrocyte): 25 µM; Ratio (Staphylococcus aureus [18]): 2 - 4; MBIC90 (Pseudomonas aeruginosa [19]): 16 µM; MIC (Escherichia coli [20]): 8 µM; MIC (Pseudomonas aeruginosa [21]): 8 µM (≈ 12.5 µg/mL); KSV (Lipid bilayer): 1.12 M⁻¹; Ratio (Pseudomonas aeruginosa [22]): 2 - 4; Activity (RAW264.7 [23]): Active; MIC (Staphylococcus aureus [24]): 2 µM; Ratio (Pseudomonas aeruginosa [25]): 2 - 4; MIC (Bacillus subtilis): 8 µM (≈ 12.5 µg/mL); Ratio (Staphylococcus aureus [26]): 2 - 4; Activity (RAW264.7 [27]): Active; MIC (Staphylococcus aureus [28]): 8 µM; Activity (RAW264.7 [29]): Active; MIC (Pseudomonas aeruginosa [30]): 8 µM (≈ 12.5 µg/mL); MIC (Escherichia coli [31]): 8 µM; Ratio (Pseudomonas aeruginosa [32]): 2 - 4; Activity (RAW264.7 [33]): Active; MIC (Staphylococcus aureus [34]): 8 µM (≈ 12.5 µg/mL); MIC [35]: 4 µM (≈ 6.26 µg/mL); Ratio (Pseudomonas aeruginosa [36]): 2 - 4; MIC (Escherichia coli [37]): 8 µM; Activity (RAW264.7 [38]): Active; KSV [39]: 1.66 M⁻¹
